Tests used:
B16 Melanoma = assay: Activity against B16 Melanoma; assay type: in vivo, female B6 D2 F1 mice; settings: day 10
Description: (§1) The B16 melanoma and colon 38 carcinoma used were obtained from the NCI Liasion Office, Institut Jules Bordet, Brussels, Belgium and, for propagation, were kept as solid, subcutaneously growing tumor lines on male C57BL/6J mice. For testing, the tumors were transplanted to female B6 D2 F1 mice. All animals were kept under standard conditions (22°-23° C., tap water and altromin food ad libitum, 12-h light-dark rhythm).
(§2) For tumor transplantation on day 0 of the testing experiments, solid tumors were removed from donor mice, minced with scissors and reduced to small particles. After suspension in twofold volumes of Hank's balanced salt solution, volumes of 0.3 ml were inoculated subcutaneously into the axillary region, resulting in the growth of solitary solid tumors.
(§3) The test compounds were administered either as a single injection on day 1 or as three injections on days 1, 3 and 5, or as five injections on days 1, 3, 5, 7 and 9. The different doses applied and the animal distribution are recorded in table 4. The substances, dissolved or suspended in a DMSO-saline mixture (1/9=v/v), were always injected intraperitoneally. The concentrations were selected in such a manner that each mouse received a total volume of 0.4 to 0.5 ml. Control animals only obtained one, three or five injections of the DMSO-saline mixture (0.5 ml/animal) without drug addition.
(§4) The number of deaths was recorded daily. Deaths occuring within 7 days (single injection), 11 days (three injections) or 15 days (five injections) after tumor transplantation were defined as deaths due to substance toxicity.
(§5) In the case of B16 melonoma, the tumors were removed and weighed on day 10 for the single and three injections or on day 15 for the five injections. Colon 38 carcinomas were always evaluated on day 15 of the experiment.

Colon 38 Carcinoma = assay: Activity against Colon 38 Carcinoma; assay type: in vivo, female B6 D2 F1 mice; settings: day 15
Description: as §1, §2, §3, §4, §5

ascitic Sarcoma 180 = assay: Activity against ascitic Sarcoma 180; assay type: in vivo, female NMRI mice; settings: for Survivors/Animals Treated: day 80; for MST (mean survival time): mean (range)
From the text: Each animal obtained about 10^7 tumor cells.
Every day occuring deaths were noted.

solid Sarcoma 180 = assay: Activity against solid Sarcoma 180; settings: day 9; for Tumor Weight: mean ± SD
Description: The sarcoma 180 used in the present study was obtained from the Deutsche Krebsforschungszentrum (Heidelberg, Germany). It was propagated as an intraperitoneally growing tumor line on female NMRI mice which were kept under standard conditions (altromin food and tap water ad libitum, 12-h dark-light rhythm).
Antitumor testing was performed against sarcoma 180 in fluid ascitic as well as in solid, subcutaneously growing form. For testing against ascitic or solid sarcoma 180, the ascitic tumor of donor mice was harvested, diluted 1:3 (v:v) with saline and injected either into the peritoneal cavity or, subcutaneously, into the axillary region of female NMRI mice. Each animal obtained about 10^7 tumor cells. The day of tumor transplantation was defined as day 0 of the experiment.
Before administration of the test compounds, samples corresponding to the applied doses were dissolved in DMSO, filled up with ninefold volumes of saline and applied to mice in volumes of 0.02 ml per g of body weight. The different doses were either given as a single injection on day 1 or as triple injections on days 1, 3 and 5. […] The untreated, tumor-bearing control animals only received injections of the DMSO/saline mixture (0.02 ml/g). Every day occuring deaths were noted. Deaths within 8 days after tumor transplantation were defined as toxic deaths due to substance toxicity. In the case of ascitic sarcoma 180, the parameters evaluated were the values of mean survival time (MST) and of increase in life span (ILS); the latter was calculated by relating the mean survival time of a treated group to that of the corresponding control group expressed as a percentage and by subtracting 100%. The key date for the evaluation of the experiment and for determining the number of surviving (cured) animals was day 80. In the case of solid sarcoma 180, the tumors were removed on day 9 after transplantation and weighted to an accuracy of ±1 mg. From tumor weights of treated and control animals, the T/C ratios were calculated as follows: [formula]

Ehrlich ascites tumor = assay: Activity against Ehrlich Ascites Tumor; assay type: in vivo, Female CF1 mice; settings: single i.p. dose, 24 h after tumor inoculation
Description: Female CF1 mice are each given about 6×10^6 Ehrlich ascites tumor cells by means of intraperitoneal injection and, 24 hours later, a single intraperitoneal dose of substance dose range of 20 to 500 mg/kg) in physiological saline solution (0.4 ml). In each case 5 to 10 animals are tested per dose. If appropriate, the preparation can be buffered to a pH of 4 to 7, for example with sodium bicarbonate or tris-(hydroxymethyl)-aminomethane, in order to avoid local irritation at the injection site. A group of untreated control animals which were injected intraperitoneally with 0.4 ml of physiological saline solution without administration of the substance is also run for each test series.
The tumor development in the individual dose ranges is evaluated by means of the weight course and survival time. The dose-dependent number of tumor deaths, toxicity deaths and surviving, and the associated percentage increase in the average survival time are determined for each substance.

Mammary Carcinoma = assay: Activity against heterotransplanted human mammary carcinoma; assay type: in vivo, human tumor xenograft tumor xenograft tumor xenograft; settings: 5 × 30 mg/kg; day 23
Description: (§6) The same testing procedure as in the tests with B16 melanoma and colon 38 carcinoma was employed. The test compounds were applied in equivalent and equitoxic doses, subdivided into five injections. The first injection was administered on day 8 (mammary carcinoma), day 10 (adenocarcinoma of rectum and lung) and day 26 (small cell lung carcinoma) of the tumor transplantation. The T/C values were determined 3 days after the last substance injection, i.e., on day 23 (mammary carcinoma), day 25 (adenocarcinoma of rectum and lung) and day 41 (small cell lung carcinoma).

Lung Adenocarcinoma = assay: Activity against heterotransplanted human lung adenocarcinoma; assay type: in vivo; settings: 5 × 30 mg/kg; day 25
Description: as §6

Rectum Adenocarcinoma = assay: Activity against heterotransplanted human rectum adenocarcinoma; assay type: in vivo; settings: 5 × 30 mg/kg; day 25
Description: as §6

[1] = test system: Lung Small Cell Carcinoma; assay: Activity against heterotransplanted human small cell lung carcinoma; assay type: in vivo; settings: 5 × 30 mg/kg; day 41
Description: as §6

Compound: Cl.Cl.Nc1ccc([S][Ti]([S]c2ccc(N)cc2)([CH]2C=CC=C2)[CH]2C=CC=C2)cc1 [Compound 1, Bis(p-aminothiophenolato)bis(.eta.^5 -cyclopentadienyl)titanium(IV)-dihydrochloride]
- T/C (B16 Melanoma; 1 × 100 mg/kg i.p.): 80%
- T/C (B16 Melanoma; 3 × 60 mg/kg i.p.): 36%
- T/C (Colon 38 Carcinoma; 1 × 100 mg/kg i.p.): 61%
- T/C (Colon 38 Carcinoma; 3 × 60 mg/kg i.p.): 38%
- ILS (increase in life span) (ascitic Sarcoma 180; 1 × 60 mg/kg): 15%
- ILS (increase in life span) (ascitic Sarcoma 180; 1 × 100 mg/kg): 139%
- Survivors/Animals Treated (ascitic Sarcoma 180; 1 × 100 mg/kg): 1/5
- MST (mean survival time) (ascitic Sarcoma 180; 1 × 100 mg/kg): 39,4 (19-80) d
- T/C (solid Sarcoma 180; 1 × 60 mg/kg): 109%
- Tumor Weight (solid Sarcoma 180; 1 × 60 mg/kg): 1,30 ± 0,30 g
- T/C (solid Sarcoma 180; 1 × 100 mg/kg): 86%
- Tumor Weight (solid Sarcoma 180; 1 × 100 mg/kg): 1,03 ± 0,26 g
- T/C (solid Sarcoma 180; 3 × 60 mg/kg): 39%
- Tumor Weight (solid Sarcoma 180; 3 × 60 mg/kg): 0,47 ± 0,12 g
- Optimal Treating Rate (Ehrlich ascites tumor): 100%
- Therapeutic Index (LD50/ED90) (Ehrlich ascites tumor): 4,3

Compound: Cl.Nc1ccc([S][Ti]([Cl])([CH]2C=CC=C2)[CH]2C=CC=C2)cc1 [Compound 2, p-aminothiophenolato-chloro-bis(.eta.^5 -cyclopentadienyl)titanium(IV)-hydrochloride]
- Optimal Treating Rate (Ehrlich ascites tumor): 100%
- Therapeutic Index (LD50/ED90) (Ehrlich ascites tumor): 4,4

Compound: O=C(O)C=CC(=O)[O][Ti+2][O]C(=O)C=CC(=O)O.c1cc[cH-]c1.c1cc[cH-]c1 [Compound 3, Bis(hydrogenmaleinato)bis(.eta.^5 -cyclopentadienyl)titanium(IV)]
- T/C (based on mean relative volume of tumor) (Mammary Carcinoma): 40%
- T/C (B16 Melanoma; 1 × 120 mg/kg i.p.): 89%
- T/C (B16 Melanoma; 3 × 100 mg/kg i.p.): 50%
- T/C (based on mean relative volume of tumor) (Lung Adenocarcinoma): 35%
- T/C (Colon 38 Carcinoma; 1 × 120 mg/kg i.p.): 72%
- T/C (Colon 38 Carcinoma; 3 × 100 mg/kg i.p.): 50%
- T/C (based on mean relative volume of tumor) (Rectum Adenocarcinoma): 89%
- ILS (increase in life span) (ascitic Sarcoma 180; 1 × 80 mg/kg): 95%
- Survivors/Animals Treated (ascitic Sarcoma 180; 1 × 80 mg/kg): 1/5
- MST (mean survival time) (ascitic Sarcoma 180; 1 × 80 mg/kg): 32,2 (15-80) d
- ILS (increase in life span) (ascitic Sarcoma 180; 1 × 120 mg/kg): 125%
- Survivors/Animals Treated (ascitic Sarcoma 180; 1 × 120 mg/kg): 1/5
- MST (mean survival time) (ascitic Sarcoma 180; 1 × 120 mg/kg): 37,2 (21-80) d
- T/C (solid Sarcoma 180; 1 × 80 mg/kg): 95%
- Tumor Weight (solid Sarcoma 180; 1 × 80 mg/kg): 1,13 ± 0,18 g
- T/C (solid Sarcoma 180; 1 × 120 mg/kg): 73%
- Tumor Weight (solid Sarcoma 180; 1 × 120 mg/kg): 0,87 ± 0,41 g
- T/C (solid Sarcoma 180; 3 × 60 mg/kg): 76%
- Tumor Weight (solid Sarcoma 180; 3 × 60 mg/kg): 0,91 ± 0,25 g
- T/C (solid Sarcoma 180; 3 × 100 mg/kg): 53%
- Tumor Weight (solid Sarcoma 180; 3 × 100 mg/kg): 0,63 ± 0,14 g
- Optimal Treating Rate (Ehrlich ascites tumor): 100%
- Therapeutic Index (LD50/ED90) (Ehrlich ascites tumor): 3,8
- T/C (based on mean relative volume of tumor) [1]: 65%
